In general, logP refers to the decadic logarithm of the partition coefficient of the neutral form, usually between octanol and water. The low end stands for lower lipophilicity, the high end for higher lipophilicity. In turn, `CC(C)(C)NCC(COc1nsnc1N1CCOCC1)OC(=O)C1CC1` (stereo unspecified) gave a lipophilicity (logP) of 3.54.

The values above are taken from the OPERA property sets (Mansouri et al. 2018).
